{
  "source": "patent US11730746B2",
  "about": "“17beta-heterocyclyl-digitalis like compounds for the treatment of heart failure” (priority 2018, dated 2023)",
  "key": {"[1]": {"tested_on": "ATPase, Ca++, skeletal muscle, pig", "test": "Eurofins panel 107480", "type": "biochemical", "conditions": "10 μM"}, "[2]": {"target": "T1, CYP19 (CYP450, 19; aromatase) (Homo sapiens, UniProt P11511)", "T1 construct": "Eurofins 118040", "test": "Eurofins panel 118040", "type": "biochemical", "conditions": "crude membrane preparations", "procedure": "(§1) Radioligand binding to a panel of receptors was carried out by Eurofins on crude membrane preparations according to published procedures and by using appropriate reference standard (Eurofins, CVie 101 compound code PT #1207859, study #AB76416, quote #68407-1, for Cvie Therapeutics Limited, Taiwan (R.OC.) on Mar. 5, 2017). CVie 101 was tested at the concentration of 10 μM. No significant interaction was documented, except for Sodium Channel, site 2 from rat (cat #279510), where a significant response (≥50%) was noted (Table 7)."}, "Monoamine Oxidase MAO-A": {"target": "T2, Monoamine Oxidase MAO-A (Homo sapiens, UniProt P21397)", "T2 construct": "Eurofins 140010", "test": "Eurofins panel 140010", "type": "biochemical", "procedure": "as §1"}, "[3]": {"target": "T3, Peptidase, Angiotensin Converting Enzyme (Oryctolagus cuniculus, UniProt P12822)", "T3 construct": "Eurofins 107300", "test": "Eurofins panel 107300", "type": "biochemical, rabbit"}, "Peptidase, Renin": {"target": "T4, Peptidase, Renin (Homo sapiens, UniProt P00797)", "T4 construct": "Eurofins 164610", "test": "Eurofins panel 164610", "type": "biochemical"}, "Phosphodiesterase PDE3": {"target": "T5, Phosphodiesterase PDE3 (Homo sapiens, UniProt Q14432)", "T5 construct": "Eurofins 152000", "T5 sequence (Q14432 whole entry)": "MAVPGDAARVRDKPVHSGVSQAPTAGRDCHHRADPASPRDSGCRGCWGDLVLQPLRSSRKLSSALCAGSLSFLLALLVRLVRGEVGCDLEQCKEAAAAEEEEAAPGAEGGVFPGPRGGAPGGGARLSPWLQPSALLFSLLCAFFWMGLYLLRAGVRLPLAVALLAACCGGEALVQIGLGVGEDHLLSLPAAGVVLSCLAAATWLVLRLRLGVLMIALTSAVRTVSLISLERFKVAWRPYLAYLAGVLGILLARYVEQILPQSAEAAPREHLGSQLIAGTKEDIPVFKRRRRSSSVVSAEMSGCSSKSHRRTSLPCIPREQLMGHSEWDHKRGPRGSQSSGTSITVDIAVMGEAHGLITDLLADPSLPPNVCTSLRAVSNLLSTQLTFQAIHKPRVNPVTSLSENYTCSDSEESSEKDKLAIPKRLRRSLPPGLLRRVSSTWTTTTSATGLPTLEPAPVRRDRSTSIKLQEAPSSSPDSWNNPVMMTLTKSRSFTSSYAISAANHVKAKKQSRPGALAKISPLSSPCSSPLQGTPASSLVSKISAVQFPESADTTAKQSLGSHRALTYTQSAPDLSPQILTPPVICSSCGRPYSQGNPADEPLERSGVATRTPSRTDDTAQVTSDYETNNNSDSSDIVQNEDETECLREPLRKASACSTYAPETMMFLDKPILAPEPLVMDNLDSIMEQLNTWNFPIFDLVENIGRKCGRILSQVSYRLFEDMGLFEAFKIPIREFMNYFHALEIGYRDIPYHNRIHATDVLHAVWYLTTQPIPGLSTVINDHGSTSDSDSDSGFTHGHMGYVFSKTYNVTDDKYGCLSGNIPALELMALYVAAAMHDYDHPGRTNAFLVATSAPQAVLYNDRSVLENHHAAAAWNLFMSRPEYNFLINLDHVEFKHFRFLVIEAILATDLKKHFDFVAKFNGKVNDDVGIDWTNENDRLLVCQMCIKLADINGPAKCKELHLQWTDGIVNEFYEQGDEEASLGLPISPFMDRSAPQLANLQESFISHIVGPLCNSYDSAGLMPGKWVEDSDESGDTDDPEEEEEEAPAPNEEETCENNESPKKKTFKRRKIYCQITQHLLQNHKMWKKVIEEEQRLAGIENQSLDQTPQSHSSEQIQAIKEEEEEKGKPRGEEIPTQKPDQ", "test": "Eurofins panel 152000", "type": "biochemical", "procedure": "as §1"}, "Adenosine A1": {"target": "T6, Adenosine A1 (Homo sapiens, UniProt P30542)", "T6 construct": "Eurofins 200510; host or cells: crude membrane preparation", "T6 sequence (P30542 whole entry)": "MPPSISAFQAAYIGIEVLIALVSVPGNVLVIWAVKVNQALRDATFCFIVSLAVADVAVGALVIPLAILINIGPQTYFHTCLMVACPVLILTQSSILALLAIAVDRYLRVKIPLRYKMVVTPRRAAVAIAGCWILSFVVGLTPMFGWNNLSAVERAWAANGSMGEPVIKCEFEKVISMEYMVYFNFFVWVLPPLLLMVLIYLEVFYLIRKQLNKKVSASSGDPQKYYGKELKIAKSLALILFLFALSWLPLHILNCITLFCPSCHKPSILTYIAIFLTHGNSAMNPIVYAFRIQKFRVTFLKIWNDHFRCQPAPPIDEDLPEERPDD", "test": "Receptor binding 200510", "procedure": "as §1"}, "Adenosine A2A": {"target": "T7, Adenosine A2A (Homo sapiens, UniProt P29274)", "T7 construct": "Eurofins 200610; host or cells: crude membrane preparation", "test": "Receptor binding 200610", "procedure": "as §1"}, "Adrenergic α1A": {"target": "T8, Adrenergic α1A (Rattus norvegicus, UniProt P43140)", "T8 construct": "Eurofins 203100; host or cells: crude membrane preparation", "test": "Receptor binding 203100", "procedure": "as §1"}, "Adrenergic α1B": {"target": "T9, Adrenergic α1B (Rattus norvegicus, UniProt P15823)", "T9 construct": "Eurofins 203200; host or cells: crude membrane preparation", "T9 sequence (P15823 whole entry)": "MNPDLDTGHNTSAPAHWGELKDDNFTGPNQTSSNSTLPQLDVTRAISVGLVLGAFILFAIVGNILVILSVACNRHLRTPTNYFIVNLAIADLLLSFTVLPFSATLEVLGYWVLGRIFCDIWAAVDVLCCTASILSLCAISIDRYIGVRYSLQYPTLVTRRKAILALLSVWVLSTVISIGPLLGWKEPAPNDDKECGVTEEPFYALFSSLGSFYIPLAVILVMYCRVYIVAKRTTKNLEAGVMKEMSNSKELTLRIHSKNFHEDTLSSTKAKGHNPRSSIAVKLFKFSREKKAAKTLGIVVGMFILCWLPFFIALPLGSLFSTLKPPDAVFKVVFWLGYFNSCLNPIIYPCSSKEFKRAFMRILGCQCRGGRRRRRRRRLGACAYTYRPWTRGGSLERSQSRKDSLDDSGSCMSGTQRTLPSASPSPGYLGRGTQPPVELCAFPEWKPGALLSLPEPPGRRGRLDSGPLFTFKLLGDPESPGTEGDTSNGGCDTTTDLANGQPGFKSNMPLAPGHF", "test": "Receptor binding 203200", "procedure": "as §1"}, "Adrenergic α2A": {"target": "T10, Adrenergic α2A (Homo sapiens, UniProt P08913)", "T10 construct": "Eurofins 203630; host or cells: crude membrane preparation", "test": "Receptor binding 203630", "procedure": "as §1"}, "Androgen (Testosterone)": {"tested_on": "Androgen (Testosterone)", "test": "Receptor binding 206000", "design": "species or system human", "conditions": "10 μM", "procedure": "as §1"}, "Angiotensin AT1": {"target": "T11, Angiotensin AT1 (Homo sapiens, UniProt P30556)", "T11 construct": "Eurofins 210030; host or cells: crude membrane preparation", "test": "Receptor binding 210030", "procedure": "as §1"}, "Angiotensin AT2": {"target": "T12, Angiotensin AT2 (Homo sapiens, UniProt P50052)", "T12 construct": "Eurofins 210120; host or cells: crude membrane preparation", "T12 sequence (P50052 whole entry)": "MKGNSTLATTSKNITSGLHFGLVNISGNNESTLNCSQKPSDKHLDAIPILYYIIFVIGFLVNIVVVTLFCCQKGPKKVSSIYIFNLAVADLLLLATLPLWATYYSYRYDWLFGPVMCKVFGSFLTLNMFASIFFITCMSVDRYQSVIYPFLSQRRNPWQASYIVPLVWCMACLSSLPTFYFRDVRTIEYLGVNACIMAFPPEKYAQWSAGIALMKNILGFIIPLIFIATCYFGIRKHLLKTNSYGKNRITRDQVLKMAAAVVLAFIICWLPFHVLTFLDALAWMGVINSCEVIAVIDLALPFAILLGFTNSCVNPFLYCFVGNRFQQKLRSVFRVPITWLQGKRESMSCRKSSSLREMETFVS", "test": "Receptor binding 210120", "procedure": "as §1"}, "Dopamine D1": {"target": "T13, Dopamine D1 (Homo sapiens, UniProt P21728)", "T13 construct": "Eurofins 219500; host or cells: crude membrane preparation", "T13 sequence (P21728 whole entry)": "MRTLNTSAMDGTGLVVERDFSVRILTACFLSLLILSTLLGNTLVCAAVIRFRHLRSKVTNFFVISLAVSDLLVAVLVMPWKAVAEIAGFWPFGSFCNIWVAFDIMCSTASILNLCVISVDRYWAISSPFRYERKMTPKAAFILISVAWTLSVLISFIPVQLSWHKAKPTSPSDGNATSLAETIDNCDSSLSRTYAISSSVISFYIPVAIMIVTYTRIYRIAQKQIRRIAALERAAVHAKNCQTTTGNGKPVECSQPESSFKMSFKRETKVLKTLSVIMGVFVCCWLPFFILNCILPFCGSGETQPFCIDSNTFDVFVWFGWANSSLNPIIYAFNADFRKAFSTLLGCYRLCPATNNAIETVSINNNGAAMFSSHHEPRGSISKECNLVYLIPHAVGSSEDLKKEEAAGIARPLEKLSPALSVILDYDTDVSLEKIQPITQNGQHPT", "test": "Receptor binding 219500", "procedure": "as §1"}, "Dopamine D2s": {"target": "T14, Dopamine D2s (Homo sapiens, UniProt P14416)", "T14 construct": "Eurofins 219700; host or cells: crude membrane preparation", "test": "Receptor binding 219700", "procedure": "as §1"}, "Dopamine D3": {"target": "T15, Dopamine D3 (Homo sapiens, UniProt P35462)", "T15 construct": "Eurofins 219800; host or cells: crude membrane preparation", "T15 sequence (P35462 whole entry)": "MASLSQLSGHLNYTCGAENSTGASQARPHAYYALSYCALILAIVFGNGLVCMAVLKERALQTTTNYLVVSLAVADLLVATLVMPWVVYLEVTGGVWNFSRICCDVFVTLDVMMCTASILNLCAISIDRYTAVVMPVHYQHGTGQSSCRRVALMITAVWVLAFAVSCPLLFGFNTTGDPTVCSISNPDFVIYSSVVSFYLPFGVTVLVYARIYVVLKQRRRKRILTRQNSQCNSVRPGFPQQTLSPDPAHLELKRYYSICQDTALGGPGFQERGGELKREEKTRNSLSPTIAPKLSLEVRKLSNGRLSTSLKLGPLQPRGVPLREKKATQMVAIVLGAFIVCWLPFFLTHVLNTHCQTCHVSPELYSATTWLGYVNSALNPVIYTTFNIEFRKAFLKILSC", "test": "Receptor binding 219800", "procedure": "as §1"}, "Estrogen ERα": {"target": "T16, Estrogen ERα (Homo sapiens, UniProt P03372)", "T16 construct": "Eurofins (contract assay) 226010", "test": "Receptor binding 226010", "procedure": "as §1"}, "Estrogen ERβ": {"target": "T17, Estrogen ERβ (Homo sapiens, UniProt Q92731)", "T17 construct": "Eurofins (contract assay) 226050", "test": "Receptor binding 226050", "procedure": "as §1"}, "GABAA, Muscimol, Central": {"tested_on": "GABAA, Muscimol, Central", "test": "Receptor binding 226500", "design": "species or system rat", "conditions": "10 μM", "procedure": "as §1"}, "Histamine H1": {"target": "T18, Histamine H1 (Homo sapiens, UniProt P35367)", "T18 construct": "Eurofins (contract assay) 239610", "T18 sequence (P35367 whole entry)": "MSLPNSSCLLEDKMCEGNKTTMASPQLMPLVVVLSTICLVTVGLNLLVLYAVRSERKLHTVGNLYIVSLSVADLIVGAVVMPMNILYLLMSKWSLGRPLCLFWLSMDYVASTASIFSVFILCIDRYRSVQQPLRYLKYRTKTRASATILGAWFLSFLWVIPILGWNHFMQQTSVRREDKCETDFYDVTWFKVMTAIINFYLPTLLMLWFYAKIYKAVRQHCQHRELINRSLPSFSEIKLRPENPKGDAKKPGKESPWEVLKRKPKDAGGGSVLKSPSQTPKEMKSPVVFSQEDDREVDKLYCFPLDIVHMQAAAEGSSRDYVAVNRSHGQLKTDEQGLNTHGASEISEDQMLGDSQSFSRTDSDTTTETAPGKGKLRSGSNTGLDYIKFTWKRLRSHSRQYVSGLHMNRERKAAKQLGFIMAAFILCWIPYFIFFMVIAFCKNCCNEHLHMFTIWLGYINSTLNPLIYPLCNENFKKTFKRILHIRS", "test": "Receptor binding 239610", "procedure": "as §1"}, "Imidazoline I2, Central": {"tested_on": "Imidazoline I2, Central", "test": "Receptor binding 241000", "design": "species or system rat", "conditions": "10 μM", "procedure": "as §1"}, "Insulin": {"target": "T19, Insulin (Rattus norvegicus, UniProt P15127)", "T19 construct": "Eurofins (contract assay) 243000", "test": "Receptor binding 243000", "procedure": "as §1"}, "Muscarinic M3": {"target": "T20, Muscarinic M3 (Homo sapiens, UniProt P20309)", "T20 construct": "Eurofins (contract assay) 252810", "T20 sequence (P20309 whole entry)": "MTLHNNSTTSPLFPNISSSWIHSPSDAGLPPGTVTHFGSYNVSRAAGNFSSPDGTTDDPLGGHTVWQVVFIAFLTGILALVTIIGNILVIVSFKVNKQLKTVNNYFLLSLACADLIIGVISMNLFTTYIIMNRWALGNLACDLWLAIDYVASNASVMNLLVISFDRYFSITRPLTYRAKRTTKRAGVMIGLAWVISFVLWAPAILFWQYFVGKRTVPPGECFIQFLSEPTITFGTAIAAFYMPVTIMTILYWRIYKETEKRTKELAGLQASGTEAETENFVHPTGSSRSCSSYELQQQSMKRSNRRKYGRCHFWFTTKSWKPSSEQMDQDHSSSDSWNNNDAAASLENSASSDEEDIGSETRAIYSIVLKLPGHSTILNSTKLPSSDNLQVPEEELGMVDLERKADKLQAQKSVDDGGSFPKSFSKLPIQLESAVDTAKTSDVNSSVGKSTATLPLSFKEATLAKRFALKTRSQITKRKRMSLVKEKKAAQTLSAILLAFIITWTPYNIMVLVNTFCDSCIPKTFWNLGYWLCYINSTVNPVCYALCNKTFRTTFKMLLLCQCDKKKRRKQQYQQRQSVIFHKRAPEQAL", "test": "Receptor binding 252810", "procedure": "as §1"}, "Muscarinic M5": {"target": "T21, Muscarinic M5 (Homo sapiens, UniProt P08912)", "T21 construct": "Eurofins (contract assay) 253010", "T21 sequence (P08912 whole entry)": "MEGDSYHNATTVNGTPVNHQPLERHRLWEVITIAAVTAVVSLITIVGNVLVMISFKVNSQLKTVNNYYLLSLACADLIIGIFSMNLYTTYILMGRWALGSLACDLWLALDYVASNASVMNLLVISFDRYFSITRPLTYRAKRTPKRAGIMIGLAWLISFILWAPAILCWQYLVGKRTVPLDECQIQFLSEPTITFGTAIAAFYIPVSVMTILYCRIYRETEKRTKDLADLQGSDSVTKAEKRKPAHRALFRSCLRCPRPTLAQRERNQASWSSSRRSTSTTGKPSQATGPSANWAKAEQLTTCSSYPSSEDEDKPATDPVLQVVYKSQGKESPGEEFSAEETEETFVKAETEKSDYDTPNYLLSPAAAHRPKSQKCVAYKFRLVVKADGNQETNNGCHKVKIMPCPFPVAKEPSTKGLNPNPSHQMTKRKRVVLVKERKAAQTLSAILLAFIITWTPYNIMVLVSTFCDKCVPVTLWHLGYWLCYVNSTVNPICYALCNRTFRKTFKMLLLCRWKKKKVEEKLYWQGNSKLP", "test": "Receptor binding 253010", "procedure": "as §1"}, "Phorbol Ester": {"tested_on": "Phorbol Ester", "test": "Receptor binding 264500", "design": "species or system mouse", "conditions": "10 μM", "procedure": "as §1"}, "Potassium Channel (KATP)": {"target": "T22, Potassium Channel (KATP) (Cricetus cricetus, UniProt Q09427)", "T22 construct": "Eurofins (contract assay) 265600", "test": "Receptor binding 265600", "design": "species or system hamster", "procedure": "as §1"}, "Progesterone PR-B": {"target": "T23, Progesterone PR-B (Homo sapiens, UniProt P06401)", "T23 construct": "Eurofins (contract assay) 299005", "test": "Receptor binding 299005", "procedure": "as §1"}, "Ryanodine RyR3": {"target": "T24, Ryanodine RyR3 (Rattus norvegicus, UniProt A0ABK0LPH6)", "T24 construct": "Eurofins (contract assay) 270300", "test": "Receptor binding 270300", "procedure": "as §1"}, "[4]": {"tested_on": "Serotonin (5-Hydroxytryptamine) 5-HT1, non selective", "test": "Receptor binding 271010", "design": "species or system rat", "conditions": "10 μM", "procedure": "as §1"}, "Sigma σ1": {"target": "T25, Sigma σ1 (Homo sapiens, UniProt Q99720)", "T25 construct": "Eurofins (contract assay) 278110", "test": "Receptor binding 278110", "procedure": "as §1"}, "[5]": {"conditions": "rats, study i.v. 1 mg/kg and os 10 mg/kg, mean"}},
  "data": [
    {"smiles": "C[C@]12CC[C@H](O)C[C@H]1CCC1C2CC[C@]2(C)[C@@H](c3c[nH]cn3)CC[C@]12O", "note": "(stereo partly drawn) [CVie 101, 3β-hydroxy-5β-10β-methyl-13β-methyl-14β-hydroxy-17β-(imidazol-4-yl)androstane]", "values": [
      {"measurement": "% inhib", "setting": "[1]", "value": 14, "unit": "%"},
      {"measurement": "inhibition at 10 µM", "setting": "[2]", "value": 36, "unit": "%"},
      {"measurement": "inhibition at 10 µM", "setting": "Monoamine Oxidase MAO-A", "value": 4, "unit": "%"},
      {"measurement": "inhibition at 10 µM", "setting": "[3]", "value": 5, "unit": "%"},
      {"measurement": "inhibition at 10 µM", "setting": "Peptidase, Renin", "value": 3, "unit": "%"},
      {"measurement": "inhibition at 10 µM", "setting": "Phosphodiesterase PDE3", "value": -16, "unit": "%"},
      {"measurement": "inhibition at 10 µM", "setting": "Adenosine A1", "value": -4, "unit": "%"},
      {"measurement": "inhibition at 10 µM", "setting": "Adenosine A2A", "value": 0, "unit": "%"},
      {"measurement": "inhibition at 10 µM", "setting": "Adrenergic α1A", "value": 1, "unit": "%"},
      {"measurement": "inhibition at 10 µM", "setting": "Adrenergic α1B", "value": 0, "unit": "%"},
      {"measurement": "inhibition at 10 µM", "setting": "Adrenergic α2A", "value": -7, "unit": "%"},
      {"measurement": "% inhib", "setting": "Androgen (Testosterone)", "value": 1, "unit": "%"},
      {"measurement": "inhibition at 10 µM", "setting": "Angiotensin AT1", "value": 12, "unit": "%"},
      {"measurement": "inhibition at 10 µM", "setting": "Angiotensin AT2", "value": -1, "unit": "%"},
      {"measurement": "inhibition at 10 µM", "setting": "Dopamine D1", "value": -5, "unit": "%"},
      {"measurement": "inhibition at 10 µM", "setting": "Dopamine D2s", "value": 4, "unit": "%"},
      {"measurement": "inhibition at 10 µM", "setting": "Dopamine D3", "value": 7, "unit": "%"},
      {"measurement": "inhibition at 10 µM", "setting": "Estrogen ERα", "value": 14, "unit": "%"},
      {"measurement": "inhibition at 10 µM", "setting": "Estrogen ERβ", "value": 17, "unit": "%"},
      {"measurement": "% inhib", "setting": "GABAA, Muscimol, Central", "value": "−9", "unit": "%"},
      {"measurement": "inhibition at 10 µM", "setting": "Histamine H1", "value": 13, "unit": "%"},
      {"measurement": "% inhib", "setting": "Imidazoline I2, Central", "value": 25, "unit": "%"},
      {"measurement": "inhibition at 10 µM", "setting": "Insulin", "value": -7, "unit": "%"},
      {"measurement": "inhibition at 10 µM", "setting": "Muscarinic M3", "value": 15, "unit": "%"},
      {"measurement": "inhibition at 10 µM", "setting": "Muscarinic M5", "value": 21, "unit": "%"},
      {"measurement": "% inhib", "setting": "Phorbol Ester", "value": "−4", "unit": "%"},
      {"measurement": "inhibition at 10 µM", "setting": "Potassium Channel (KATP)", "value": -6, "unit": "%"},
      {"measurement": "inhibition at 10 µM", "setting": "Progesterone PR-B", "value": 10, "unit": "%"},
      {"measurement": "inhibition at 10 µM", "setting": "Ryanodine RyR3", "value": 8, "unit": "%"},
      {"measurement": "% inhib", "setting": "[4]", "value": 7, "unit": "%"},
      {"measurement": "inhibition at 10 µM", "setting": "Sigma σ1", "value": 23, "unit": "%"},
      {"measurement": "AUC(0-inf)", "setting": "Bioavailability in rats; rat, in vivo, 10 mg/kg", "value": 2490, "unit": "ng·h/mL"},
      {"measurement": "AUC(0-t)", "setting": "Bioavailability in rats; rat, in vivo, 10 mg/kg", "value": 2430, "unit": "ng·h/mL"},
      {"measurement": "Cmax", "setting": "Bioavailability in rats; rat, in vivo, 10 mg/kg", "value": 1020, "unit": "ng/mL"},
      {"measurement": "MRT last", "setting": "Bioavailability in rats; rat, in vivo, 10 mg/kg", "value": 2.03, "unit": "h"},
      {"measurement": "Tmax", "setting": "Bioavailability in rats; rat, in vivo, 10 mg/kg", "value": 0.5, "unit": "h"},
      {"measurement": "half-life", "setting": "Bioavailability in rats; rat, in vivo, 10 mg/kg", "value": 2.21, "unit": "h"},
      {"measurement": "bioavailability", "setting": "Bioavailability in rats; rat, in vivo, po, 10 mg/kg", "value": 66.3, "unit": "%"},
      {"measurement": "Cl_F_pred", "setting": "Bioavailability in rats; [5]", "value": 81.3, "unit": "mL/min/kg"},
      {"measurement": "Vz_F_pred", "setting": "Bioavailability in rats; [5]", "value": 14.29, "unit": "L/kg"}
    ]}
  ]
}
